A short description of series [1]: Mouse PK study (i.v. and p.o.). It is filed as in vivo. Conditions: plasma, male CD1 mice; for half-life: read-out: T1/2 (hr) i.v. (converted); for Vd: read-out: Vss; for bioavailability: 5 mg/kg p.o. vs 1 mg/kg i.v. As for the experimental part: Test compounds were dosed to male CD1 mice at 5 mg/kg by oral gavage (p.o.) or 1 mg/kg by intravenous injection (i.v.). Blood samples were taken at 0.083, 0.25, 0.5, 1.0, 3.0, 6.0 and 24 hours post i.v. dosing and at 0.25, 0.5, 1.0, 3.0, 6.0 and 24 hours post p.o. dosing. The plasma concentration of compounds were determined by HPLC.

Another series has as its target T1, α1β2γ2 GABAA receptor (Homo sapiens, UniProt P14867+P47870).
T1 construct: expressed in transfected cells
Nature of the series: Patch clamp electrophysiology assay of recombinant α1β2γ2 GABAA receptors (potentiation of 2 μM GABA-evoked Cl- current). Conditions: HEK293T cells stably transfected with α1β2γ2 GABAA; whole cell, 2 μM GABA, -80 mV. The format is cell-based. On the procedure: Cellular electrophysiology is used to measure the pharmacological properties of GABAA receptor modulators in heterologous cell systems. Each compound is tested for its ability to affect GABA mediated currents at a submaximal agonist dose (GABA EC20=2 μM). HEK293T cells are stably transfected with the α1β2γ2 subunits of the GABAA receptor. Flasks or dishes of HEK293 GABAA cells were maintained in the medium (DMEM, 11% (v/v) heat inactivated FBS, 100 or 200 μg/ml G418, 40 μg/ml Hygromycin B, 80 μg/ml Zeocin) and incubated at 37° C. in a humidified incubator with 5% CO2. 12 to 24 hours prior to electrophysiological recordings, the cells were plated on glass cover slips placed in culture dishes and maintained under the same incubation and media conditions. The number of cells being plated on the cover slip should reach a confluence rate at which majority of the cells are single.
For the electrophysiological recordings in the study the following external and internal solutions were used (Table 1):
HEKA EPC 10 USB patch clamp amplifier (from HEKA Elektronik, Germany) was used in the whole cell recording. A cover slip with plenty of single HEK293T-GABAA cells on the surface was removed and placed into a continuously perfused (approximately 1-2 ml/minute) recording chamber mounted on an inverted microscope. GABAA Cl^− current was recorded from single cell using standard whole cell recording techniques. 2 μM GABA was used to evoke GABAA Cl^− current (2 μM of GABA was the EC10-EC20 value of agonist GABA obtained internally on the stable GABAA cells used in this study). After achieving break-in (whole-cell) configuration, the cell was voltage clamped at a holding potential of −80 mV. Only stable cells meeting the recording parameters (membrane resistance Rm>500 MΩ, access resistance (Ra)<15 MΩ, leak current<100 pA in 90% of the recording time) were used. 2 μM GABA was applied to the cell to induce stable Cl^− current first as control for about 2 seconds, test compounds (i.e., compounds of formula (AI), (I), (AII), and (II), or any subgenera thereof) were followed to be applied to the cells for 3 min, then 2 μM GABA was applied to observe the potentiation effect on the GABAA Cl^− current. Different doses of test compound from low to high were applied to the same cell when the cell was stable. A cell was considered stable when current size evoked by 2 μM GABA applied to the cell from time to time was similar. To minimize the possible desensitation of GABAA Cl^− current, duration between applications of test articles was set to 180 seconds.
Test compounds were dissolved in DMSO to form stock solutions (10 mM). Test compounds were diluted to 0.003, 0.01, 0.03, 0.1, 0.3, 1, 3 and 10 μM in bath solution. AU concentrations of test articles were tested on each cell. Data were analyzed using software provided by HEKA, Microsoft Excel and Graphpad Prism (Table 2).
For orientation: Patch clamp records ionic current or voltage across a cell membrane.

The mark [2] stands for this setting: iv, 1 mg/kg i.v., read-out: AUClast (hr*ng/mL) i.v.
The mark [3] stands for this setting: po, 5 mg/kg p.o., read-out: AUClast (hr*ng/mL) p.o.

pEC50: −log10 of the molar value. Like-named read-outs stand apart in the source and are kept apart here.

T1 sequence (P14867 28-456): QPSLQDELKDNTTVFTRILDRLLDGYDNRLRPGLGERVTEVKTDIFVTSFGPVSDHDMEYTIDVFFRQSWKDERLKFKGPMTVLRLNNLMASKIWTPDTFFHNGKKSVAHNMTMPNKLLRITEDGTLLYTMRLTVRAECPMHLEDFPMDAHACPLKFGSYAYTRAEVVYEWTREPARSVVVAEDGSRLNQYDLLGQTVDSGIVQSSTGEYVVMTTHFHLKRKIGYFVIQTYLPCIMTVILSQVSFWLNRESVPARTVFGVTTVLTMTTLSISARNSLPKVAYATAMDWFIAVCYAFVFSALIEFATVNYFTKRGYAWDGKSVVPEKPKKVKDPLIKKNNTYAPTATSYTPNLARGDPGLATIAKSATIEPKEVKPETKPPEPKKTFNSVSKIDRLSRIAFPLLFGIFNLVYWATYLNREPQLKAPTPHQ
T1 sequence (P47870 25-512 limits assumed): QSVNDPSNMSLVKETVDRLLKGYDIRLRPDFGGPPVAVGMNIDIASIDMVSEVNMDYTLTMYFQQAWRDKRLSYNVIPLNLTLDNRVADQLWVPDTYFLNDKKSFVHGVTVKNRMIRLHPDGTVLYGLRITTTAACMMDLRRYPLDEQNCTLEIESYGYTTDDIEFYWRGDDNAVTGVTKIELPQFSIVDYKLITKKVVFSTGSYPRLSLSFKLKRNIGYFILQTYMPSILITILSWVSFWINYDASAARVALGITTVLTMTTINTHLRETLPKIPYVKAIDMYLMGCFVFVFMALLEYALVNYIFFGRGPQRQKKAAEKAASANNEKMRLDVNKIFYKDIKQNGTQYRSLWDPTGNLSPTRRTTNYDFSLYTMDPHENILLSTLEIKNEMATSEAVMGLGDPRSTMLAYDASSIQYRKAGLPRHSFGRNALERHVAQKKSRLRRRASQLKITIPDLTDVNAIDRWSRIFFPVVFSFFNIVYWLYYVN
T1 sequence (P18507 40-475 partner): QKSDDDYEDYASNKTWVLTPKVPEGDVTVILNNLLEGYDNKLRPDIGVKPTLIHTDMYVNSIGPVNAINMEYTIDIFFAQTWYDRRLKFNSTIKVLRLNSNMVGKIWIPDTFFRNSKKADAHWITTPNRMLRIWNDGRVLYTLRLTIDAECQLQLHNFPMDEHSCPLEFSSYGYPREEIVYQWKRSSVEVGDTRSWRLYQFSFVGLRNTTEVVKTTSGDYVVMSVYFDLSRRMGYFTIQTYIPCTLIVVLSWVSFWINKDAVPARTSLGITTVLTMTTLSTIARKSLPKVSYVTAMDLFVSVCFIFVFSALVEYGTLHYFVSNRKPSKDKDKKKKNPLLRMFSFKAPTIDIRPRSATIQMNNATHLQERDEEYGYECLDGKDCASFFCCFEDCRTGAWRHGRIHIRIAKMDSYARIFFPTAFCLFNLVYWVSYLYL

One may read the Cmax as the highest concentration seen after dosing. The term Tmax denotes the time at which the peak concentration occurs. As a reminder, the pEC50 is the EC50 on a negative log10 scale, so that one unit is a factor of ten. Turning to `C[C@@]1(O)CC[C@H]2[C@H](CC[C@@H]3[C@@H]2CC[C@]2(C)[C@@H](C(=O)Cn4nnn(-c5cccc(F)c5)c4=O)CC[C@@H]32)C1` [Example 12, 1-(3-fluorophenyl)-4-(2-((3R,5R,8R,9R,10S,13S,14S,17S)-3-hydroxy-3,13-dimethylhexadecahydro-1H-cyclopenta[a]phenanthren-17-yl)-2-oxoethyl)-1,4-dihydro-5H-tetrazol-5-one], in series [1] (iv, 1 mg/kg i.v.), the clearance is 8.33 mL/min/kg, the half-life is 6.22 h and the Vd was found to be 2.86 L/kg. Besides, in series [1] (setting [2]), the AUC(0-t) is 1880 ng·h/mL. Also, in series [1] (po, 5 mg/kg p.o.), the Cmax came to 388 ng/mL and the Tmax amounted to 1 h. Also, the bioavailability in series [1] (po) was found to be 42.4%. For the same compound, in series [1] (setting [3]), the AUC(0-t) amounted to 4140 ng·h/mL. The pEC50 at α1β2γ2 GABAA receptor was 8.03.

In the case of `C[C@@]1(O)CC[C@H]2[C@H](CC[C@@H]3[C@@H]2CC[C@]2(C)[C@@H](C(=O)Cn4nnn(CC5CC5)c4=O)CC[C@@H]32)C1` [Example 7, 1-(cyclopropylmethyl)-4-(2-((3R,5R,8R,9R,10S,13S,14S,17S)-3-hydroxy-3,13-dimethylhexadecahydro-1H-cyclopenta[a]phenanthren-17-yl)-2-oxoethyl)-1,4-dihydro-5H-tetrazol-5-one], in series [1] (iv, 1 mg/kg i.v.), the clearance was 68.7 mL/min/kg, the half-life is 0.6 h and the Vd worked out at 1.69 L/kg. Moreover, the AUC(0-t) in series [1] (setting [2]) was determined as 239 ng·h/mL. In series [1] (po, 5 mg/kg p.o.), the Cmax was 186 ng/mL and the Tmax was determined as 0.5 h. For the same compound, in series [1] (po), the bioavailability stood at 27.6%. Besides, the AUC(0-t) in series [1] (setting [3]) was 326 ng·h/mL. Besides, the pEC50 on α1β2γ2 GABAA receptor is 7.00.

As for `Cn1ccc(-n2nnn(CC(=O)[C@H]3CC[C@H]4[C@@H]5CC[C@@H]6C[C@](C)(O)CC[C@@H]6[C@H]5CC[C@]34C)c2=O)n1` [Example 27, 1-(2-((3R,5R,8R,9R,10S,13S,14S,17S)-3-hydroxy-3,13-dimethylhexadecahydro-1H-cyclopenta[a]phenanthren-17-yl)-2-oxoethyl)-4-(1-methyl-1H-pyrazol-3-yl)-1,4-dihydro-5H-tetrazol-5-one], in series [1] (iv, 1 mg/kg i.v.), the clearance is 14.5 mL/min/kg, the half-life was 1.09 h and the Vd stood at 1.14 L/kg. In addition, the AUC(0-t) in series [1] (setting [2]) turned out to be 1110 ng·h/mL. In series [1] (po, 5 mg/kg p.o.), the Cmax came to 1070 ng/mL and the Tmax is 1 h. In addition, in series [1] (po), the bioavailability was found to be 153%. Further, in series [1] (setting [3]), the AUC(0-t) worked out at 8770 ng·h/mL. The pEC50 at α1β2γ2 GABAA receptor is 6.92.

As to `CC(C)n1nnn(CC(=O)[C@H]2CC[C@H]3[C@@H]4CC[C@@H]5C[C@](C)(O)CC[C@@H]5[C@H]4CC[C@]23C)c1=O` [Example 4, 1-(2-((3R,5R,8R,9R,10S,13S,14S,17S)-3-hydroxy-3,13-dimethylhexadecahydro-1H-cyclopenta[a]phenanthren-17-yl)-2-oxoethyl)-4-isopropyl-1,4-dihydro-5H-tetrazol-5-one], in series [1] (iv, 1 mg/kg i.v.), the clearance was 24.8 mL/min/kg, the half-life was 0.54 h and the Vd was found to be 0.88 L/kg. Further, the AUC(0-t) in series [1] (setting [2]) amounted to 659 ng·h/mL. Moreover, in series [1] (po, 5 mg/kg p.o.), the highest level (Cmax) was 808 ng/mL and the Tmax amounted to 0.25 h. For the same compound, the bioavailability in series [1] (po) came to 25.8%. Also, the AUC(0-t) in series [1] (setting [3]) was determined as 782 ng·h/mL. The pEC50 at α1β2γ2 GABAA receptor is 6.85.

Turning to `C[C@@]1(O)CC[C@H]2[C@H](CC[C@@H]3[C@@H]2CC[C@]2(C)[C@@H](C(=O)Cn4nnn(CC#N)c4=O)CC[C@@H]32)C1` [Example 20, 2-(4-(2-((3R,5R,8R,9R,10S,13S,14S,17S)-3-hydroxy-3,13-dimethylhexadecahydro-1H-cyclopenta[a]phenanthren-17-yl)-2-oxoethyl)-5-oxo-4,5-dihydro-1H-tetrazol-1-yl)acetonitrile], the pEC50 on α1β2γ2 GABAA receptor is 6.25.

Take `COc1ccc(-n2nnn(CC(=O)[C@H]3CC[C@H]4[C@@H]5CC[C@@H]6C[C@](C)(O)CC[C@@H]6[C@H]5CC[C@]34C)c2=O)cc1` [Example 15, 1-(2-((3R,5R,8R,9R,10S,13S,14S,17S)-3-hydroxy-3,13-dimethylhexadecahydro-1H-cyclopenta[a]phenanthren-17-yl)-2-oxoethyl)-4-(4-methoxyphenyl)-1,4-dihydro-5H-tetrazol-5-one]: in series [1] (iv, 1 mg/kg i.v.), the clearance was 30 mL/min/kg, the half-life is 1.05 h and the Vd was 1.76 L/kg. Moreover, the AUC(0-t) in series [1] (setting [2]) is 542 ng·h/mL. Further, in series [1] (po, 5 mg/kg p.o.), the Cmax was 106 ng/mL and the Tmax worked out at 1 h. For the same compound, the bioavailability in series [1] (po) turned out to be 10.8%. For the same compound, the AUC(0-t) in series [1] (setting [3]) stood at 292 ng·h/mL. The pEC50 at α1β2γ2 GABAA receptor was 8.30.

Take `Cn1cc(-n2nnn(CC(=O)[C@H]3CC[C@H]4[C@@H]5CC[C@@H]6C[C@](C)(O)CC[C@@H]6[C@H]5CC[C@]34C)c2=O)cn1` [Example 29, 1-(2-((3R,5R,8R,9R,10S,13S,14S,17S)-3-hydroxy-3,13-dimethylhexadecahydro-1H-cyclopenta[a]phenanthren-17-yl)-2-oxoethyl)-4-(1-methyl-1H-pyrazol-4-yl)-1,4-dihydro-5H-tetrazol-5-one]: the pEC50 at α1β2γ2 GABAA receptor is 6.55.

Turning to `C[C@@]1(O)CC[C@H]2[C@H](CC[C@@H]3[C@@H]2CC[C@]2(C)[C@@H](C(=O)Cn4nnn(C5CC5)c4=O)CC[C@@H]32)C1` [Example 6, 1-cyclopropyl-4-(2-((3R,5R,8R,9R,10S,13S,14S,17S)-3-hydroxy-3,13-dimethylhexadecahydro-1H-cyclopenta[a]phenanthren-17-yl)-2-oxoethyl)-1,4-dihydro-5H-tetrazol-5-one], at α1β2γ2 GABAA receptor, the pEC50 is 6.18.

Turning to `C[C@@]1(O)CC[C@H]2[C@H](CC[C@@H]3[C@@H]2CC[C@]2(C)[C@@H](C(=O)Cn4nnn(C5CCCCC5)c4=O)CC[C@@H]32)C1` [Example 9, 1-cyclohexyl-4-(2-((3R,5R,8R,9R,10S,13S,14S,17S)-3-hydroxy-3,13-dimethylhexadecahydro-1H-cyclopenta[a]phenanthren-17-yl)-2-oxoethyl)-1,4-dihydro-5H-tetrazol-5-one], the pEC50 at α1β2γ2 GABAA receptor was 5.86.

As to `C[C@@]1(O)CC[C@H]2[C@H](CC[C@@H]3[C@@H]2CC[C@]2(C)[C@@H](C(=O)Cn4nnn(CCC#N)c4=O)CC[C@@H]32)C1` [Example 21, 3-(4-(2-((3R,5R,8R,9R,10S,13S,14S,17S)-3-hydroxy-3,13-dimethylhexadecahydro-1H-cyclopenta[a]phenanthren-17-yl)-2-oxoethyl)-5-oxo-4,5-dihydro-1H-tetrazol-1-yl)propanenitrile], on α1β2γ2 GABAA receptor, the pEC50 is 6.54.

`C[C@@]1(O)CC[C@H]2[C@H](CC[C@@H]3[C@@H]2CC[C@]2(C)[C@@H](C(=O)Cn4nn[nH]c4=O)CC[C@@H]32)C1` [Example 19, 1-(2-((3R,5R,8R,9R,10S,13S,14S,17S)-3-hydroxy-3,13-dimethylhexadecahydro-1H-cyclopenta[a]phenanthren-17-yl)-2-oxoethyl)-1,4-dihydro-5H-tetrazol-5-one]: at α1β2γ2 GABAA receptor, the pEC50 is 4.62.

In the case of `C[C@@]1(O)CC[C@H]2[C@H](CC[C@@H]3[C@@H]2CC[C@]2(C)[C@@H](C(=O)Cn4nnn(-c5cnco5)c4=O)CC[C@@H]32)C1` [Example 23, 1-(2-((3R,5R,8R,9R,10S,13S,14S,17S)-3-hydroxy-3,13-dimethylhexadecahydro-1H-cyclopenta[a]phenanthren-17-yl)-2-oxoethyl)-4-(oxazol-5-yl)-1,4-dihydro-5H-tetrazol-5-one], at α1β2γ2 GABAA receptor, the pEC50 is 7.02.

The values above are taken from patent US20220089636A1, “TETRAZOLONE SUBSTITUTED STEROIDS AND USE THEREOF” (Beijing Xuanyi PharmaSciences Co., Ltd., priority 2019, published 2022).
